The values below come from US8178554B2, “Heterocyclic compounds, their preparation and their use as medicaments, in particular as anti-bacterial agents” (priority 2000, dated 2012).

Structures are written as SMILES.

Holding throughout (format): cell-based
One experiment has as its system E. coli (hyperpermeable). Kind of experiment: In vitro activity, dilution in liquid medium, M.I.C. on E. coli (hyperpermeable). To be noted: code 250IP5, incubation twenty-four hours at 37° C. Here is the method: (§1) In vitro activity, method of dilution in liquid medium
(§2) A series of tubes are prepared in which the same quantity of sterile nutritive medium is distributed. Increasing quantities of the product to be studied are distributed into each tube, then each tube is sown with a bacterial strain. After incubation for twenty-four hours in a heating chamber at 37° C., the growth inhibition is evaluated by transillumination, which allows the minimal inhibitory concentrations (M.I.C.) to be determined, expressed in μg/cml.

A further experiment has as its system E. coli DC2 (permeable). Put plainly: In vitro activity, dilution in liquid medium, M.I.C. on E. coli DC2 (permeable). To be noted: code 250HT6, incubation twenty-four hours at 37° C. The protocol:
as §1, §2

The next experiment has as its system S. aureus Exp 54146. Put plainly: In vitro activity, dilution in liquid medium, M.I.C. on S. aureus Exp 54146. To be noted: S. aureus Exp 54146, code 011UC4, incubation twenty-four hours at 37° C. The protocol: as §1, §2
The test system of the next experiment is E. coli. Put plainly: In vitro activity, dilution in liquid medium, M.I.C. on E. coli 250HT11. To be noted: code 250HT11, incubation twenty-four hours at 37° C. The protocol:
as §1, §2

A further experiment has as its system S. aureus SG511. Kind of experiment: In vitro activity, dilution in liquid medium, M.I.C. on S. aureus SG511. Conditions: S. aureus SG511, code 011 HT3, incubation twenty-four hours at 37° C. Here is the method: as §1, §2
In the next experiment the test system is S. Pyogenes A561. Put plainly: In vitro activity, dilution in liquid medium, M.I.C. on S. Pyogenes A561. Conditions: S. Pyogenes A561, code 02A1UC1, incubation twenty-four hours at 37° C. Here is the method:
as §1, §2

Regarding `NC(=O)CNC(=O)[C@H]1CC[C@@H]2CN1C(=O)N2OS(=O)(=O)[O-].[Na+]` (relative stereo) [Test A, Sodium salt of trans-N-(2-amino-2-oxoethyl)-7-oxo-6-(sulphooxy)-1,6-diazabicyclo[3,2,1]octane-2-carboxamide], the M.I.C. in the experiment with E. coli (hyperpermeable) was 20 µg/mL; in the experiment on E. coli DC2 (permeable), 80 µg/mL; with S. aureus Exp 54146 it was above 160 µg/mL; with E. coli it was 160 µg/mL; in the experiment with S. aureus SG511 it was above 160 µg/mL; in the experiment on S. Pyogenes A561, 160 µg/mL.

As for `[NH-]C(=O)[C@H]1CC[C@@H]2CN1C(=O)N2OS(=O)(=O)[O-].[Na+].[Na+]` (relative stereo) [Test B, Sodium salt of trans-7-oxo-6-(sulphooxy)-1,6-diazabicyclo[3,2,1]octane-2-carboxamide], the M.I.C. in the experiment with E. coli (hyperpermeable) is 10 µg/mL; in the experiment on E. coli DC2 (permeable), 40 µg/mL; in the experiment on S. aureus Exp 54146, above 160 µg/mL; in the experiment with E. coli, 80 µg/mL; in the experiment with S. aureus SG511, above 160 µg/mL; in the experiment with S. Pyogenes A561 it was above 160 µg/mL.

Take `O=C(NCc1cccnc1)[C@H]1CC[C@@H]2CN1C(=O)N2OS(=O)(=O)[O-].[Na+]` (relative stereo) [Test C, Sodium salt of trans-7-oxo-N-(3-pyridinylmethyl)-6-(sulphooxy)-1,6-diazabicyclo[3,2,1] octane-2-carboxamide]: the M.I.C. in the experiment on E. coli (hyperpermeable) is 5 µg/mL; in the experiment with E. coli DC2 (permeable) it was 20 µg/mL; in the experiment on S. aureus Exp 54146, above 80 µg/mL; in the experiment on E. coli, 20 µg/mL; with S. aureus SG511 it was above 80 µg/mL; in the experiment on S. Pyogenes A561, above 80 µg/mL.

In the case of `O=C(NCc1ccncc1)[C@H]1CC[C@@H]2CN1C(=O)N2OS(=O)(=O)[O-].[Na+]` (relative stereo) [Test D, Sodium salt of trans-7-oxo-N-[(4-pyridinyl)methyl]-6-(sulphooxy)-1,6-diazabicyclo[3,2,1] octane-2-carboxamide], the M.I.C. with E. coli (hyperpermeable) is 2.5 µg/mL; with E. coli DC2 (permeable), 20 µg/mL; in the experiment with S. aureus Exp 54146 it was above 80 µg/mL; with E. coli it was 20 µg/mL; in the experiment with S. aureus SG511, above 80 µg/mL; with S. Pyogenes A561 it was above 80 µg/mL.

Take `O=C(NCc1ccccc1)[C@H]1CC[C@@H]2CN1C(=O)N2OS(=O)(=O)[O-].[Na+]` (relative stereo) [Test E, Sodium salt of trans-7-oxo-N-(phenylmethyl)-6-(sulphooxy)-1,6-diazabicyclo[3,2,1]octane-2-carboxamide]: the M.I.C. is 20 µg/mL in the experiment with E. coli (hyperpermeable); above 80 µg/mL in the experiment with E. coli DC2 (permeable); 5 µg/mL in the experiment with S. aureus Exp 54146; above 80 µg/mL in the experiment on E. coli; 5 µg/mL with S. aureus SG511; 1.2 µg/mL with S. Pyogenes A561.

With `O=C(OCc1ccccc1)[C@H]1CC[C@@H]2CN1C(=O)N2OS(=O)(=O)[O-].[Na+]` (relative stereo) [Test F, Sodium salt of phenylmethyl trans-7-oxo-6-(sulphooxy)-1,6-diazabicyclo[3,2,1]octane-2-carboxylate], the M.I.C. in the experiment on S. aureus Exp 54146 and with S. aureus SG511 was 160 µg/mL throughout.
